We go through one molecule from patent publication US9120728B2, “Modulators of cortical dopaminergic- and NMDA-receptor-mediated glutamatergic neurotransmission” (INTEGRATIVE RESEARCH LABORATORIES SWEDEN AB, priority 2011, dated 2015).

Structures are written as SMILES.

Broadly, the ED50 is the dose at which the effect has come halfway, by size or by number of responders.

Assay [1] concerns d-amphetamine pre-treated rats. The assay is described as follows: Reduction of amphetamine-induced hyper-locomotion. The class given is in vivo. As to conditions: Rattus norvegicus; rats pre-treated with d-amphetamine 1.5 mg/kg i.p.; test compound 0-100 μmol/kg s.c.; distance during last 45 minutes of one hour. The text has this:
The increase in activity after treatment with d-amphetamine is a standard model of hyperdopaminergia. In this model, dopaminergic neurotransmission is increased by systemic administration of d-amphetamine at a dose that is sufficiently high to produce a large increase in locomotor activity. The ability of a compound to antagonize this hyperactivity reflects anti-dopaminergic properties. Furthermore, antagonism of d-amphetamine induced hyperactivity is widely used as a standard assay of antipsychotic activity (see Psychopharmacology 4th Generation of progress Chapter 68, p 793-795).
(§1) Behavioural activity is measured using eight Digiscan activity monitors (RXYZM (16) TAO, Omnitech Electronics, Columbus, Ohio, USA), connected to an Omnitech Digiscan analyzer and an Apple Macintosh computer equipped with a digital interface board (NB DIO-24, National Instruments, USA). […]
(§2) Behavioural data from each activity monitor, representing the position (horizontal center of gravity and vertical activity) of the animal at each time, are recorded at a sampling frequency of 25 Hz and collected using a custom written LABView™ application. The data from each recording session are stored and analyzed with respect to distance traveled. […]
ED50 value for reduction of amphetamine-induced hyper-locomotion is calculated by curve fitting. […]

A further assay concerns MK-801 pre-treated rats. Put plainly: Reduction of MK-801-induced hyper-locomotion. The class given is in vivo. The following applies: Rattus norvegicus; MK-801 0.7 mg/kg i.p. 90 minutes before test compound; locomotor activity between 45 and 60 minutes after administration; 0-100 μmol/kg s.c.
Excerpt: Reduction of MK-801-Induced Hyper-Locomotion Another animal model of antipsychotic activity is based on administration of the glutamate antagonist MK-801. Glutamate antagonists (i.e. NMDA antagonists), can induce psychoses in man (see Psychopharmacology, 4th Generation of progress Chapter 101, p. 1205 and 1207) and induce behavioural aberrations in animals. Thus, the ability of a drug to affect schizophrenia and psychotic states can be measured using behavioural models based on experimentally-induced hypoglutamatergic states. In this study the NMDA antagonist MK-801 (0.7 mg/kg i.p.) was used to create a hypoglutamatergic state where the rats display abnormal, hyperactive behaviour.
as §1, §2

A further assay concerns drug-naive rats. The assay is described as follows: Effects on spontaneous locomotion (locomotor activity in drug-naive rats). The class given is in vivo, rat. The following applies: recorded for 60 minutes immediately after drug administration. As for the experimental part: Prior art dopamine receptor antagonists are known to induce profound decrease in locomotor activity (catalepsy).
Behavioural activity is measured using eight Digiscan activity monitors (RXYZM (16) TAO, Omnitech Electronics, Columbus, Ohio, USA), connected to an Omnitech Digiscan analyzer and an Apple Macintosh computer equipped with a digital interface board (NB DIO-24, National Instruments, USA). Each activity monitor consists of a quadratic metal frame (W×L=40 cm×40 cm) equipped with photobeam sensors. During measurements of behavioural activity, a rat is put in a transparent acrylic cage (WxLxH, 40×40×30 cm) which in turn is placed in the activity monitor. Each activity monitor is equipped with three rows of infrared photobeam sensors, each row consisting of 16 sensors. Two rows are placed along the front and the side of the floor of the cage, at a 90° angle, and the third row is placed 10 cm above the floor to measure vertical activity. Photobeam sensors are spaced 2.5 cm apart. Each activity monitor is fitted in an identical sound and light attenuating box containing a weak house light and a fan.
The computer software is written using object oriented programming (LabVIEW®, National instruments, Austin, Tex., USA).
Behavioural data from each activity monitor, representing the position (horizontal center of gravity and vertical activity) of the animal at each time, are recorded at a sampling frequency of 25 Hz and collected using a custom written LABView™ application. The data from each recording session are stored and analyzed with respect to distance traveled. Each behavioural recording session lasts 60 min, starting approximately 4 min after the injection of test compound. Similar behavioural recording procedures are applied for drug-naïve and drug pre-treated rats. Rats pre-treated with d-amphetamine are given a dose of 1.5 mg/kg i.p. 10 min before the recording session in the activity monitor. Rats pre-treated with MK-801 are given a dose of 0.7 mg/kg i.p. 90 min before the recording session in the activity monitor. The results are presented as counts/60 minutes, or counts/30 minutes, in arbitrary length units. Statistical comparisons are carried out using Student's t-test against the control group. In MK-801 or amphetamine pre-treated animals, statistical comparisons are made against the MK801 or d-amphetamine controls, respectively.

Take `CCCNCCOc1cc(F)cc(S(C)(=O)=O)c1` [Example 1, N-[2-(3-fluoro-5-methylsulfonyl-phenoxy)ethyl]propan-1-amine]: the median effective dose (ED50) in assay [1] was found to be 24 µmol/kg; with MK-801 pre-treated rats, 5.6 µmol/kg. Also, the Locomotor activity was 8049 counts/60 min in the assay on drug-naive rats (3.7 μmol/kg), 7325 counts/60 min with drug-naive rats (11 μmol/kg) and 6025 counts/60 min in the assay with drug-naive rats (33 μmol/kg).
